≈ marks a conversion by molar mass, not a printed value.
Test system: A. baumannii strain ATCC19606
Experiment: Minimum inhibitory concentration (MIC) determination, microbroth dilution (CLSI)
Format: cell-based
Conditions: Acinetobacter baumannii; A. baumannii ATCC19606; CAMHB; read after 20 hours; >=80% growth inhibition; read-out: ATCC19606 MIC
Method in brief: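 After 20 h at 35±2 °C, MIC taken visually and by OD 600 nm as the lowest concentration giving ≥80% growth inhibition. Bacteria (~5×10^5 CFU/ml) were tested per CLSI microbroth dilution against twofold serial compound dilutions in cation-adjusted Mueller Hinton broth.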

MIC	Compound
2 µg/mL (≈ 2.27 µM)	CN1CCN(c2cc(-c3cc(Cl)c4c(c3)CNC(=O)[C@H](Cc3c[nH]c5ccccc35)N(C)C(=O)[C@H](CCCCN)NC(=O)[C@H](CCCN)NCc3cccnc3S4)ccn2)CC1 [Example 115, (11S,14S,17S)-14-(4-Amino-butyl)-11-(3-amino-propyl)-25-chloro-17-(1H-indol-3-ylmethyl)-16-methyl-23-[2-(4-methyl-piperazin-1-yl)-pyridin-4-yl]-2-thia-4,10,13,16,19-pentaaza-tricyclo[19.4.0.0*3,8*]pentacosa-1(25),3,5,7,21,23-hexaene-12,15,18-trione]
0.5 µg/mL (≈ 0.617 µM)	Cc1cc(-c2cc(Cl)c3c(c2)CNC(=O)[C@H](Cc2c(C)[nH]c4ccccc24)N(C)C(=O)[C@H](CCCCN)NC(=O)[C@H](CCCN)NCc2cccnc2S3)ccn1 [Example 170, (11S,14S,17S)-14-(4-Amino-butyl)-11-(3-amino-propyl)-25-chloro-16-methyl-17-(2-methyl-1H-indol-3-ylmethyl)-23-(2-methyl-pyridin-4-yl)-2-thia-4,10,13,16,19-pentaaza-tricyclo[19.4.0.0*3,8*]pentacosa-1(25),3(8),4,6,21,23-hexaene-12,15,18-trione]
8 µg/mL (≈ 10.2 µM)	CN1C(=O)[C@H](CCCCN)NC(=O)[C@H](CCCN)NCc2cccnc2Sc2c(Cl)cc(-c3ccnnc3)cc2CNC(=O)[C@@H]1Cc1c[nH]c2ccccc12 [Example 148, (11S,14S,17S)-14-(4-Amino-butyl)-11-(3-amino-propyl)-25-chloro-17-(1H-indol-3-ylmethyl)-16-methyl-23-pyridazin-4-yl-2-thia-4,10,13,16,19-pentaaza-tricyclo[19.4.0.0*3,8*]pentacosa-1(25),3(8),4,6,21,23-hexaene-12,15,18-trione]
16 µg/mL (≈ 20.3 µM)	CN1C(=O)[C@H](CCCCN)NC(=O)[C@H](CCCN)NCc2cccnc2Sc2c(Cl)cc(N3CCC(N)C3)cc2CNC(=O)[C@@H]1Cc1c[nH]c2ccccc12 (stereo partly drawn) [Example 174, (11S,14S,17S)-14-(4-Amino-butyl)-11-(3-amino-propyl)-23-(3-amino-pyrrolidin-1-yl)-25-chloro-17-(1H-indol-3-ylmethyl)-16-methyl-2-thia-4,10,13,16,19-pentaaza-tricyclo[19.4.0.0*3,8*]pentacosa-1(25),3(8),4,6,21,23-hexaene-12,15,18-trione]
1 µg/mL (≈ 1.3 µM)	CN1C(=O)[C@H](CCCCN)NC(=O)[C@H](CCCN)NCc2cccnc2Sc2c(Cl)cc(-c3cc[nH]c3)cc2CNC(=O)[C@@H]1Cc1c[nH]c2ccccc12 [Example 232, (11S,14S,17S)-14-(4-Amino-butyl)-11-(3-amino-propyl)-25-chloro-17-(1H-indol-3-ylmethyl)-16-methyl-23-(1H-pyrrol-3-yl)-2-thia-4,10,13,16,19-pentaaza-tricyclo[19.4.0.0*3,8*]pentacosa-1(25),3(8),4,6,21,23-hexaene-12,15,18-trione]

Second part, the compound before the results:

Compound	MIC
CN1C(=O)[C@H](CCCCN)NC(=O)[C@H](CCCN)NCc2ccccc2Sc2c(F)cccc2CNC(=O)[C@@H]1Cc1c[nH]c2ccccc12 [Example 30, (12S,15S,18S)-15-(4-Amino-butyl)-18-(3-amino-propyl)-4-fluoro-12-(1H-indol-3-ylmethyl)-13-methyl-2-thia-10,13,16,19-tetraaza-tricyclo[19.4.0.0*3,8*]pentacosa-1(21),3,5,7,22,24-hexaene-11,14,17-trione]	2 µg/mL (≈ 2.91 µM)
CN1C(=O)[C@H](CCCCN)NC(=O)[C@H](CCCN)NCc2cccnc2Sc2c(cc(C(F)(F)F)cc2C(F)(F)F)CNC(=O)[C@@H]1Cc1c[nH]c2ccccc12 [Example 91, (11S,14S,17S)-14-(4-Amino-butyl)-11-(3-amino-propyl)-17-(1H-indol-3-ylmethyl)-16-methyl-23,25-bis-trifluoromethyl-2-thia-4,10,13,16,19-pentaaza-tricyclo[19.4.0.0*3,8*]pentacosa-1(25),3,5,7,21,23-hexaene-12,15,18-trione]	0.5 µg/mL (≈ 0.62 µM)
CN1C(=O)[C@H](CCCCN)NC(=O)[C@H](CNC(=N)N)NCc2ccccc2Sc2ccccc2CNC(=O)[C@@H]1Cc1c[nH]c2ccccc12 [Example 5, N-[(11S,14S,17S)-14-(4-Amino-butyl)-17-(1H-indol-3-ylmethyl)-16-methyl-12,15,18-trioxo-2-thia-10,13,16,19-tetraaza-tricyclo[19.4.0.0*3,8*]pentacosa-1(25),3(8),4,6,21,23-hexaen-11-ylmethyl]-guanidine]	32 µg/mL (≈ 46.8 µM)
CN1C(=O)[C@H](CCCCN)NC(=O)[C@H](CCCN)NCc2ccccc2Sc2ccccc2CNC(=O)[C@@H]1Cc1cn(C)c2cc(Cl)ccc12 [Example 16, (12S,15S,18S)-15-(4-Amino-butyl)-18-(3-amino-propyl)-12-(6-chloro-1-methyl-1H-indol-3-ylmethyl)-13-methyl-2-thia-10,13,16,19-tetraaza-tricyclo[19.4.0.0*3,8*]pentacosa-1(21),3,5,7,22,24-hexaene-11,14,17-trione]	32 µg/mL (≈ 44.5 µM)
CN1C(=O)[C@H](CCCCN)NC(=O)[C@H](CCCN)NCc2cccnc2Sc2cccc(Cl)c2CNC(=O)[C@@H]1Cc1c[nH]c2ccccc12 [Example 34, (11S,14S,17S)-14-(4-Amino-butyl)-11-(3-amino-propyl)-22-chloro-17-(1H-indol-3-ylmethyl)-16-methyl-2-thia-4,10,13,16,19-pentaaza-tricyclo[19.4.0.0*3,8*]pentacosa-1(25),3,5,7,21,23-hexaene-12,15,18-trione]	16 µg/mL (≈ 22.7 µM)
Cc1cccc2c1Sc1ccc(F)cc1CN[C@@H](CCCN)C(=O)N[C@@H](CCCCN)C(=O)N(C)[C@@H](Cc1c[nH]c3ccccc13)C(=O)NC2 [Example 65, (12S,15S,18S)-15-(4-Amino-butyl)-18-(3-amino-propyl)-23-fluoro-12-(1H-indol-3-ylmethyl)-4,13-dimethyl-2-thia-10,13,16,19-tetraaza-tricyclo[19.4.0.0*3,8*]pentacosa-1(25),3,5,7,21,23-hexaene-11,14,17-trione]	32 µg/mL (≈ 45.6 µM)
CN1C(=O)[C@H](CCCCN)NC(=O)[C@H](CCCN)NCc2cccnc2Sc2c(Cl)cc(C(F)(F)F)cc2CNC(=O)[C@@H]1Cc1c[nH]c2ccccc12 [Example 62, (11S,14S,17S)-14-(4-Amino-butyl)-11-(3-amino-propyl)-25-chloro-17-(1H-indol-3-ylmethyl)-16-methyl-23-trifluoromethyl-2-thia-4,10,13,16,19-pentaaza-tricyclo[19.4.0.0*3,8*]pentacosa-1(25),3,5,7,21,23-hexaene-12,15,18-trione]	0.12 µg/mL (≈ 0.155 µM)
C[C@@H]1NCc2cccnc2Sc2c(Cl)cc(Cl)cc2CNC(=O)[C@H](Cc2c[nH]c3ccccc23)N(C)C(=O)[C@H](CCCCN)NC1=O [Example 94, (11S,14S,17S)-14-(4-Amino-butyl)-23,25-dichloro-17-(1H-indol-3-ylmethyl)-11,16-dimethyl-2-thia-4,10,13,16,19-pentaaza-tricyclo[19.4.0.0*3,8*]pentacosa-1(25),3,5,7,21,23-hexaene-12,15,18-trione]	1 µg/mL (≈ 1.44 µM)
Cc1cc(-c2cc(Cl)c3c(c2)CNC(=O)[C@H](Cc2c[nH]c4ccccc24)N(C)C(=O)[C@H](CCCCN)NC(=O)[C@H](CCCN)NCc2cccnc2S3)ccn1 [Example 105, (11S,14S,17S)-14-(4-Amino-butyl)-11-(3-amino-propyl)-25-chloro-17-(1H-indol-3-ylmethyl)-16-methyl-23-(2-methyl-pyridin-4-yl)-2-thia-4,10,13,16,19-pentaaza-tricyclo[19.4.0.0*3,8*]pentacosa-1(25),3,5,7,21,23-hexaene-12,15,18-trione]	1 µg/mL (≈ 1.26 µM)

— patent US10030047B2 (Hoffmann-La Roche Inc., priority 2015, dated 2018)
